The values below come from US8785488B2 (Exelixis Patent Company LLC, priority 2009, dated 2014).

As a reminder, the EC50 is the concentration giving half of the maximal effect.

One assay concerns the target T1, human TGR5 (h-TGR5) (Homo sapiens, UniProt Q8TDU6).
T1 construct: expressed in transfected cells
T1 sequence (Q8TDU6 1-330): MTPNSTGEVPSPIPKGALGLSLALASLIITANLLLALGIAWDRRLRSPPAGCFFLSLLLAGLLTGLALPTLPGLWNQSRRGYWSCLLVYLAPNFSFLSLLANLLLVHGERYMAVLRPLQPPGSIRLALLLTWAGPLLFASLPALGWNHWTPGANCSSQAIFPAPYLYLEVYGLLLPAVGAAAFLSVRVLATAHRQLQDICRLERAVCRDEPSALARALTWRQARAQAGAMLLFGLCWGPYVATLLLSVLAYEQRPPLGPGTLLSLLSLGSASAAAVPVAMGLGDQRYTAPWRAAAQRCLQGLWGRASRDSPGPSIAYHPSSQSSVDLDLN
The assay can be described thus: TGR5/CRE-Luciferiase Assay (HEK 293 hTGR5/CRE-Luc cells). Format: cell-based. An outline of the steps: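 HEK293 cells stably carrying hTGR5 and a CRE-luciferase reporter were exposed to serially diluted compounds (diluted in DMEM with 5% DMSO) for 6 h. Cells were then lysed in luciferase buffer, luminescence was read, and EC50 values were derived from dose-response curves.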

The next assay concerns the target T2, h-TGR5 (Homo sapiens, UniProt Q8TDU6).
T2 construct: expressed in transfected cells
T2 sequence (Q8TDU6 1-330): T1 sequence (Q8TDU6 1-330)
Kind of assay: TGR5 cAMP Assay using Cisbio cAMP Dynamic2 htrf kit (hTGR5CRE-luc HEK 293 cells). It counts as cell-based. A digest of the protocol: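 […], 4000 hTGR5CRE-luc HEK 293 cells per well, with 0.5 mM IBMX and d2-cAMP, were incubated 30 min at room temperature with compounds in 8-point half-log series, in quadruplicate.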

Where [1] appears, read: h-TGR5 CRE-Luc EC50, Table 1, read-out: CRE-Luc (EC50).
Setting [2] is: h-TGR5 cAMP EC50, Table 1, read-out: cAMP (EC50).

Like-named read-outs stand apart in the source and are kept apart here.

Turning to `COc1cc(C(C)(C)c2cnc(SCc3c(F)cc(OCCCNC(=N)N)cc3F)n2-c2ccc(F)cc2)ccc1Cl` [1-(3-{[4-({[5-{1-[4-chloro-3-(methyloxy)phenyl]-1-methylethyl}-1-(4-fluorophenyl)-1H-imidazol-2-yl]thio}methyl)-3,5-difluorophenyl]oxy}propyl)guanidine], the EC50 on human TGR5 (h-TGR5) (setting [1]) and on h-TGR5 (setting [2]) was less than 100 nM each time.
Consider `COc1cc(C(C)(C)c2cnc(SCc3ccc(S(=O)(=O)NC(=O)NN4CCCC4)cc3Cl)n2-c2ccc(F)c(CO)c2)ccc1Cl` [3-chloro-4-{[(5-{1-[4-chloro-3-(methyloxy)phenyl]-1-methylethyl}-1-[4-fluoro-3-(hydroxymethyl)phenyl]-1H-imidazol-2-yl)thio]methyl}-N-[(pyrrolidin-1-ylamino)carbonyl]benzenesulfonamide], for which the EC50 at human TGR5 (h-TGR5) (setting [1]) and at h-TGR5 (setting [2]) was 100 to 1000 nM in each case.
In the case of `CC(C)(c1ccc(Cl)c(Cl)c1)c1cnc(COc2c(F)cc(C(=O)O)cc2Cl)n1-c1ccc(F)cc1`, the EC50 on human TGR5 (h-TGR5) (setting [1]) and on h-TGR5 (setting [2]) was 100 to 1000 nM throughout.
Turning to `COc1cc(C(C)(C)c2cnc(SCc3ccc(S(=O)(=O)NC(=O)NCC(C)(C)O)cc3Cl)n2-c2ccc(F)cc2)ccc1Cl` [3-chloro-4-({[5-{1-[4-chloro-3-(methyloxy)phenyl]-1-methylethyl}-1-(4-fluorophenyl)-1H-imidazol-2-yl]thio}methyl)-N-{[(2-hydroxy-2-methylpropyl)amino]carbonyl} benzenesulfonamide], the EC50 at human TGR5 (h-TGR5) (setting [1]) and at h-TGR5 (setting [2]) was 100 to 1000 nM throughout.
Consider `CC(C)(c1ccc(Cl)c(Cl)c1)c1cnc(SCc2ccc(S(=O)(=O)O)cc2Cl)n1-c1ccc(F)cc1` [3-chloro-4-[({5-[1-(3,4-dichlorophenyl)-1-methylethyl]-1-(4-fluorophenyl)-1H-imidazol-2-yl}thio)methyl]benzenesulfonic acid], for which the EC50 on human TGR5 (h-TGR5) (setting [1]) and on h-TGR5 (setting [2]) was 100 to 1000 nM each time.
For `COc1cc(-n2c(C(C)(C)c3ccc(F)c(C#N)c3)cnc2SCc2ccc(S(=O)(=O)NC(=O)NC(C)C)cc2Cl)ccc1F` [3-chloro-4-[({5-[1-(3-cyano-4-fluorophenyl)-1-methylethyl]-1-[4-fluoro-3-(methyloxy)phenyl]-1H-imidazol-2-yl}thio)methyl]-N-{[(1-methylethyl)amino]carbonyl}benzenesulfonamide], the EC50 on human TGR5 (h-TGR5) (setting [1]) and on h-TGR5 (setting [2]) was less than 100 nM throughout.
As to `CC(C)(O)CNC(=O)c1ccc(CSc2ncc(C(C)(C)c3ccc(Cl)c(Cl)c3)n2-c2ccc(F)cc2)c(F)c1` [4-[({5-[1-(3,4-dichlorophenyl)-1-methylethyl]-1-(4-fluorophenyl)-1H-imidazol-2-yl}thio)methyl]-3-fluoro-N-(2-hydroxy-2-methylpropyl)benzamide], the concentration giving a half-maximal response (EC50) on human TGR5 (h-TGR5) (setting [1]) and at h-TGR5 (setting [2]) was 100 to 1000 nM each time.
As to `CC(C)(c1ccc(Cl)c(Cl)c1)c1cnc(SCc2ccc(F)c(C(=O)O)c2)n1-c1ccc(F)cc1` [5-[({5-[1-(3,4-dichlorophenyl)-1-methylethyl]-1-(4-fluorophenyl)-1H-imidazol-2-yl}thio)methyl]-2-fluorobenzoic acid], the EC50 on human TGR5 (h-TGR5) (setting [1]) and on h-TGR5 (setting [2]) was 100 to 1000 nM throughout.
Take `CC(C)(c1ccc(Cl)c(Cl)c1)c1cnc(SCc2ccc(C(=O)O)c(Cl)c2)n1-c1ccc(F)cc1` [2-chloro-4-[({5-[1-(3,4-dichlorophenyl)-1-methylethyl]-1-(4-fluorophenyl)-1H-imidazol-2-yl}thio)methyl]benzoic acid]: the EC50 on human TGR5 (h-TGR5) (setting [1]) and at h-TGR5 (setting [2]) was 100 to 1000 nM each time.
Consider `COc1ccc(C(C)(C)c2cnc(SCc3ccc(Cl)c(-c4nnn[nH]4)c3)n2-c2ccc(F)cc2)cc1Cl` [5-[2-chloro-5-({[5-{1-[3-chloro-4-(methyloxy)phenyl]-1-methylethyl}-1-(4-fluorophenyl)-1H-imidazol-2-yl]thio}methyl)phenyl]-1H-tetrazole], for which the figures for the EC50 on human TGR5 (h-TGR5) (setting [1]) and on h-TGR5 (setting [2]) were less than 100 nM and 100 to 1000 nM, respectively.
Regarding `COc1cc(-n2c(C(C)(C)c3ccc(S(N)(=O)=O)c(Cl)c3)cnc2SCc2ccc(C(=O)NCCC(=O)O)cc2F)ccc1F` [N-[(4-{[(5-{1-[4-(aminosulfonyl)-3-chlorophenyl]-1-methylethyl}-1-[4-fluoro-3-(methyloxy)phenyl]-1H-imidazol-2-yl)thio]methyl}-3-fluorophenyl)carbonyl]-beta-alanine], the EC50 on human TGR5 (h-TGR5) (setting [1]) and at h-TGR5 (setting [2]) was less than 100 nM in each case.
Consider `CC(C)(c1cccc(S(C)(=O)=O)c1)c1cnc(SCc2c(F)cccc2Cl)n1-c1ccc(F)cc1` [2-{[(2-chloro-6-fluorophenyl)methyl]thio}-1-(4-fluorophenyl)-5-{1-methyl-1-[3-(methylsulfonyl)phenyl]ethyl}-1H-imidazole], for which the concentration for a half-maximal effect (EC50) at human TGR5 (h-TGR5) (setting [1]) is 100 to 1000 nM; on h-TGR5 (setting [2]), less than 100 nM.
Turning to `COc1cc(C(C)(C)c2cnc(SCc3c(F)cc(S(=O)(=O)NCCCNC(=N)N)cc3F)n2-c2ccc(F)cc2)ccc1Cl` [N-(3-{[amino(imino)methyl]amino}propyl)-4-({[5-{1-[4-chloro-3-(methyloxy)phenyl]-1-methylethyl}-1-(4-fluorophenyl)-1H-imidazol-2-yl]thio}methyl)-3,5-difluorobenzenesulfonamide], the EC50 on human TGR5 (h-TGR5) (setting [1]) and on h-TGR5 (setting [2]) was less than 100 nM throughout.
As to `CC(C)(c1ccc2cccnc2c1)c1nnc(SCc2c(F)cccc2Cl)n1-c1ccc(F)cc1` [Example 47], the EC50 on human TGR5 (h-TGR5) (HEK 293 hTGR5/CRE-Luc cells, 6 hours incubation, luciferase activity, Table 2, read-out: h-TGR5CRE-Luc EC50 (CRE-Luc)) was less than 100 nM; on h-TGR5 (hTGR5CRE-luc HEK 293 cells, htrf cAMP, Table 2, read-out: h-TGR5 cAMP EC50 (cAMP)), less than 100 nM.
For `COc1cc(-n2c(C(C)(C)c3ccc(S(C)(=O)=O)cc3)cnc2SCc2c(F)cc(C(=O)O)cc2F)ccc1F` [3,5-difluoro-4-{[(1-[4-fluoro-3-(methyloxy)phenyl]-5-{1-methyl-1-[4-(methylsulfonyl)phenyl]ethyl}-1H-imidazol-2-yl)thio]methyl}benzoic acid], the EC50 was 100 to 1000 nM at human TGR5 (h-TGR5) (setting [1]) and less than 100 nM at h-TGR5 (setting [2]).
With `CC(C)(O)COc1ccc(CSc2ncc(C(C)(C)c3ccc(Cl)c(Cl)c3)n2-c2ccc(F)cc2)cc1S(N)(=O)=O` [5-[({5-[1-(3,4-dichlorophenyl)-1-methylethyl]-1-(4-fluorophenyl)-1H-imidazol-2-yl}thio)methyl]-2-[(2-hydroxy-2-methylpropyl)oxy]benzenesulfonamide], the EC50 was less than 100 nM at human TGR5 (h-TGR5) (setting [1]) and 100 to 1000 nM at h-TGR5 (setting [2]).
With `COc1cc(-n2c(C(C)(C)c3ccc4onc(N)c4c3)cnc2SCc2c(F)cc(C(=O)O)cc2F)ccc1F` [4-[({5-[1-(3-amino-1,2-benzisoxazol-5-yl)-1-methylethyl]-1-[4-fluoro-3-(methyloxy)phenyl]-1H-imidazol-2-yl}thio)methyl]-3,5-difluorobenzoic acid], the EC50 on human TGR5 (h-TGR5) (setting [1]) and at h-TGR5 (setting [2]) was less than 100 nM throughout.
As for `CC(C)(c1ccc(S(C)(=O)=O)cc1)c1cnc(SCc2c(F)cc(C(=O)O)cc2F)n1-c1ccc(F)cc1` [3,5-difluoro-4-({[1-(4-fluorophenyl)-5-{1-methyl-1-[4-(methylsulfonyl)phenyl]ethyl}-1H-imidazol-2-yl]thio}methyl)benzoic acid], the EC50 on human TGR5 (h-TGR5) (setting [1]) and at h-TGR5 (setting [2]) was less than 100 nM throughout.
With `COc1cc(C(C)(C)c2cnc(SCc3c(F)cc(S(N)(=O)=O)cc3F)n2-c2ccc(F)cc2)ccc1Cl` [4-({[5-{1-[4-chloro-3-(methyloxy)phenyl]-1-methylethyl}-1-(4-fluorophenyl)-1H-imidazol-2-yl]thio}methyl)-3,5-difluorobenzenesulfonamide], the EC50 on human TGR5 (h-TGR5) (setting [1]) and on h-TGR5 (setting [2]) was less than 100 nM throughout.
With `COc1cc(C(C)(C)c2cnc(COc3c(F)cc(C(=O)O)cc3Cl)n2-c2ccc(F)cc2)ccc1Cl` [3-chloro-4-({[5-{1-[4-chloro-3-(methyloxy)phenyl]-1-methylethyl}-1-(4-fluorophenyl)-1H-imidazol-2-yl]methyl}oxy)-5-fluorobenzoic acid], the EC50 on human TGR5 (h-TGR5) (setting [1]) and on h-TGR5 (setting [2]) was 100 to 1000 nM in each case.
Regarding `COc1cc(C(C)(C)c2cnc(SCc3ccc(C(=O)NCCS(=O)(=O)O)cc3F)n2-c2ccc(F)cc2)ccc1Cl` [2-({[4-({[5-{1-[4-chloro-3-(methyloxy)phenyl]-1-methylethyl}-1-(4-fluorophenyl)-1H-imidazol-2-yl]thio}methyl)-3-fluorophenyl]carbonyl}amino)ethanesulfonic acid], the concentration giving a half-maximal response (EC50) at human TGR5 (h-TGR5) (setting [1]) and on h-TGR5 (setting [2]) was less than 100 nM throughout.
Take `CC(C)(c1ccc(F)c(Cl)c1)c1cnc(SCc2c(F)cccc2Cl)n1-c1ccc(F)cc1` [5-[1-(3-chloro-4-fluorophenyl)-1-methylethyl]-2-{[(2-chloro-6-fluorophenyl)methyl]thio}-1-(4-fluorophenyl)-1H-imidazole]: the 50% effective concentration (EC50) on human TGR5 (h-TGR5) (setting [1]) is less than 100 nM; on h-TGR5 (setting [2]), 100 to 1000 nM.
With `COc1cc(-n2c(C(C)(C)c3ccc(S(C)(=O)=O)c(Cl)c3)cnc2SCc2ccc(S(=O)(=O)NC(=O)NN3CCCC3)cc2Cl)ccc1F` [3-chloro-4-{[(5-{1-[3-chloro-4-(methylsulfonyl)phenyl]-1-methylethyl}-1-[4-fluoro-3-(methyloxy)phenyl]-1H-imidazol-2-yl)thio]methyl}-N-[(pyrrolidin-1-ylamino)carbonyl]benzenesulfonamide], the EC50 on human TGR5 (h-TGR5) (setting [1]) and at h-TGR5 (setting [2]) was 100 to 1000 nM each time.
